# Biological target: MCH receptor (Homo sapiens, UniProt Q99705)
# Assay: High throughput functional screening FLIPR/FDSS6000: inhibition of MCH-evoked intracellular Ca2+ changes
# Format: cell-based
# Conditions: class by percent of control at 10^-7 M or IC50
# In short: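 In a kinetic calcium-flux format, compounds were tested at various concentrations against 50 nM MCH. Fluo4-loaded cells expressing a constitutively active, non-endogenous receptor were imaged at 488/530 nm for 290 s after agonist addition.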
row,SMILES,class
1,"CN(C)c1nc(N[C@H]2CC[C@@H](CNC(=O)Nc3c(F)cc(Br)cc3F)CC2)nc2ccccc12 [compound 542, N-(4-bromo-2,6-difluorophenyl)-N′-[(cis-4-{[4-(dimethylamino)quinazolin-2-yl]amino}cyclohexyl)methyl]urea]",1 (Class 1: The value of percent of control at 10^−7 M was less than 40% or the value of IC50 was less than 50 nM.)
2,CN(C)c1nc(N[C@H]2CC[C@@H](CNC(=O)Nc3ccc(Br)cc3Cl)CC2)nc2ccccc12 [compound 543],3 (Class 3: The value of percent of control at 10^−7 M was more than 60% or the value of IC50 was more than 200 nM.)
3,CN(C)c1nc(N[C@H]2CC[C@@H](CNC(=O)NCc3ccc(Br)cc3)CC2)nc2ccccc12 [compound 544],3 (Class 3: The value of percent of control at 10^−7 M was more than 60% or the value of IC50 was more than 200 nM.)
4,"CN(C)c1nc(N[C@H]2CC[C@@H](CNC(=O)Nc3ccc(Cl)cc3C(F)(F)F)CC2)nc2ccccc12 [compound 545, N-[4-chloro-2-(trifluoromethyl)phenyl]-N′-[(cis-4-{[4-(dimethylamino)quinazolin-2-yl]amino}cyclohexyl)methyl]urea]",1 (Class 1: The value of percent of control at 10^−7 M was less than 40% or the value of IC50 was less than 50 nM.)
5,Cc1cc(Cl)ccc1NC(=O)NC[C@H]1CC[C@@H](Nc2nc(N(C)C)c3ccccc3n2)CC1 [compound 546],2 (Class 2: The value of percent of control at 10^−7 M was from 40% to 60% or the value of IC50 was from 50 nM to 200 nM.)
6,CN(C)c1nc(N[C@H]2CC[C@@H](CNC(=O)Nc3ccc(Cl)cc3[N+](=O)[O-])CC2)nc2ccccc12 [compound 547],3 (Class 3: The value of percent of control at 10^−7 M was more than 60% or the value of IC50 was more than 200 nM.)
7,CN(C)c1nc(N[C@H]2CC[C@@H](CNC(=O)Nc3ccc(Cl)c(C(F)(F)F)c3)CC2)nc2ccccc12 [compound 548],3 (Class 3: The value of percent of control at 10^−7 M was more than 60% or the value of IC50 was more than 200 nM.)
8,"CN(C)c1nc(N[C@H]2CC[C@@H](CNC(=O)Nc3ccc(C#N)cc3)CC2)nc2ccccc12 [compound 549, N-(4-cyanophenyl)-N′-[(cis-4-{[4-(dimethylamino)quinazolin-2-yl]amino}cyclohexyl)methyl]urea]",1 (Class 1: The value of percent of control at 10^−7 M was less than 40% or the value of IC50 was less than 50 nM.)
9,CCOc1ccc(NC(=O)NC[C@H]2CC[C@@H](Nc3nc(N(C)C)c4ccccc4n3)CC2)cc1 [compound 550],3 (Class 3: The value of percent of control at 10^−7 M was more than 60% or the value of IC50 was more than 200 nM.)
10,"CN(C)c1nc(N[C@H]2CC[C@@H](CNC(=O)Nc3ccc(F)cc3[N+](=O)[O-])CC2)nc2ccccc12 [compound 551, N-[(cis-4-{[4-(dimethylamino)quinazolin-2-yl]amino}cyclohexyl)methyl]-N′-(4-fluoro-2-nitrophenyl)urea]",2 (Class 2: The value of percent of control at 10^−7 M was from 40% to 60% or the value of IC50 was from 50 nM to 200 nM.)
11,CN(C)c1nc(N[C@H]2CC[C@@H](CNC(=O)Nc3ccc(F)c(C(F)(F)F)c3)CC2)nc2ccccc12 [compound 552],3 (Class 3: The value of percent of control at 10^−7 M was more than 60% or the value of IC50 was more than 200 nM.)
12,"CN(C)c1nc(N[C@H]2CC[C@@H](CNC(=O)NCc3ccc(F)cc3)CC2)nc2ccccc12 [compound 553, N-[(cis-4-{[4-(dimethylamino)quinazolin-2-yl]amino}cyclohexyl)methyl]-N′-(4-fluorobenzyl)urea]",2 (Class 2: The value of percent of control at 10^−7 M was from 40% to 60% or the value of IC50 was from 50 nM to 200 nM.)
13,CCCCCCCOc1ccc(NC(=O)NC[C@H]2CC[C@@H](Nc3nc(N(C)C)c4ccccc4n3)CC2)cc1 [compound 554],3 (Class 3: The value of percent of control at 10^−7 M was more than 60% or the value of IC50 was more than 200 nM.)
14,"CN(C)c1nc(N[C@H]2CC[C@@H](CNC(=O)Nc3ccc(I)cc3)CC2)nc2ccccc12 [compound 555, N-[(cis-4-{[4-(dimethylamino)quinazolin-2-yl]amino}cyclohexyl)methyl]-N′-(4-iodophenyl)urea]",2 (Class 2: The value of percent of control at 10^−7 M was from 40% to 60% or the value of IC50 was from 50 nM to 200 nM.)
15,COc1ccc(NC(=O)NC[C@H]2CC[C@@H](Nc3nc(N(C)C)c4ccccc4n3)CC2)c(C)c1 [compound 556],2 (Class 2: The value of percent of control at 10^−7 M was from 40% to 60% or the value of IC50 was from 50 nM to 200 nM.)
16,COc1ccc(NC(=O)NC[C@H]2CC[C@@H](Nc3nc(N(C)C)c4ccccc4n3)CC2)c([N+](=O)[O-])c1 [compound 557],3 (Class 3: The value of percent of control at 10^−7 M was more than 60% or the value of IC50 was more than 200 nM.)
17,"Cc1ccc(NC(=O)NC[C@H]2CC[C@@H](Nc3nc(N(C)C)c4ccccc4n3)CC2)cc1[N+](=O)[O-] [compound 558, N-[(cis-4-{[4-(dimethylamino)quinazolin-2-yl]amino}cyclohexyl)methyl]-N′-(4-methyl-3-nitrophenyl)urea]",2 (Class 2: The value of percent of control at 10^−7 M was from 40% to 60% or the value of IC50 was from 50 nM to 200 nM.)
18,Cc1ccc(CNC(=O)NC[C@H]2CC[C@@H](Nc3nc(N(C)C)c4ccccc4n3)CC2)cc1 [compound 559],3 (Class 3: The value of percent of control at 10^−7 M was more than 60% or the value of IC50 was more than 200 nM.)

row,SMILES,class
1,CCCCOc1ccc(NC(=O)NC[C@H]2CC[C@@H](Nc3nc(N(C)C)c4ccccc4n3)CC2)cc1 [compound 560],3 (Class 3: The value of percent of control at 10^−7 M was more than 60% or the value of IC50 was more than 200 nM.)
2,CCCCc1ccc(NC(=O)NC[C@H]2CC[C@@H](Nc3nc(N(C)C)c4ccccc4n3)CC2)cc1 [compound 561],3 (Class 3: The value of percent of control at 10^−7 M was more than 60% or the value of IC50 was more than 200 nM.)
3,CN(C)c1nc(N[C@H]2CC[C@@H](CNC(=O)Nc3ccc(-c4ccccc4)cc3)CC2)nc2ccccc12 [compound 562],3 (Class 3: The value of percent of control at 10^−7 M was more than 60% or the value of IC50 was more than 200 nM.)
4,COc1cc(OC)c(NC(=O)NC[C@H]2CC[C@@H](Nc3nc(N(C)C)c4ccccc4n3)CC2)cc1Cl [compound 563],3 (Class 3: The value of percent of control at 10^−7 M was more than 60% or the value of IC50 was more than 200 nM.)
5,COc1ccc(Cl)cc1NC(=O)NC[C@H]1CC[C@@H](Nc2nc(N(C)C)c3ccccc3n2)CC1 [compound 564],3 (Class 3: The value of percent of control at 10^−7 M was more than 60% or the value of IC50 was more than 200 nM.)
6,Cc1ccc(Cl)cc1NC(=O)NC[C@H]1CC[C@@H](Nc2nc(N(C)C)c3ccccc3n2)CC1 [compound 565],2 (Class 2: The value of percent of control at 10^−7 M was from 40% to 60% or the value of IC50 was from 50 nM to 200 nM.)
7,CN(C)c1nc(N[C@H]2CC[C@@H](CNC(=O)Nc3cc(Cl)ccc3[N+](=O)[O-])CC2)nc2ccccc12 [compound 566],3 (Class 3: The value of percent of control at 10^−7 M was more than 60% or the value of IC50 was more than 200 nM.)
8,"Cc1ccc(F)cc1NC(=O)NC[C@H]1CC[C@@H](Nc2nc(N(C)C)c3ccccc3n2)CC1 [compound 567, N-[(cis-4-{[4-(dimethylamino)quinazolin-2-yl]amino}cyclohexyl)methyl]-N′-(5-fluoro-2-methylphenyl)urea]",2 (Class 2: The value of percent of control at 10^−7 M was from 40% to 60% or the value of IC50 was from 50 nM to 200 nM.)
9,CN(C)c1nc(N[C@H]2CC[C@@H](CNC(=O)Nc3ccc4c(c3)CCC4)CC2)nc2ccccc12 [compound 568],3 (Class 3: The value of percent of control at 10^−7 M was more than 60% or the value of IC50 was more than 200 nM.)
10,CN(C)c1nc(N[C@H]2CC[C@@H](CNC(=O)Nc3ccc4c(c3)Cc3ccccc3-4)CC2)nc2ccccc12 [compound 569],3 (Class 3: The value of percent of control at 10^−7 M was more than 60% or the value of IC50 was more than 200 nM.)
11,CN(C)c1nc(N[C@H]2CC[C@@H](CNC(=O)NC3c4ccccc4-c4ccccc43)CC2)nc2ccccc12 [compound 570],3 (Class 3: The value of percent of control at 10^−7 M was more than 60% or the value of IC50 was more than 200 nM.)
12,CN(C)c1nc(N[C@H]2CC[C@@H](CNC(=O)NCCc3ccccc3)CC2)nc2ccccc12 [compound 571],3 (Class 3: The value of percent of control at 10^−7 M was more than 60% or the value of IC50 was more than 200 nM.)
13,"CN(C)c1nc(N[C@H]2CC[C@@H](CNC(=O)NC3CCCC3)CC2)nc2ccccc12 [compound 572, N-cyclopentyl-N′-[(cis-4-{[4-(dimethylamino)quinazolin-2-yl]amino}cyclohexyl)methyl]urea]",2 (Class 2: The value of percent of control at 10^−7 M was from 40% to 60% or the value of IC50 was from 50 nM to 200 nM.)
14,"CN(C)c1nc(N[C@H]2CC[C@@H](CNC(=O)NC(c3ccccc3)c3ccccc3)CC2)nc2ccccc12 [compound 573, N-[(cis-4-{[4-(dimethylamino)quinazolin-2-yl]amino}cyclohexyl)methyl]-N′-(diphenylmethyl)urea]",1 (Class 1: The value of percent of control at 10^−7 M was less than 40% or the value of IC50 was less than 50 nM.)
15,COC(=O)c1ccc(NC(=O)NC[C@H]2CC[C@@H](Nc3nc(N(C)C)c4ccccc4n3)CC2)cc1 [compound 574],3 (Class 3: The value of percent of control at 10^−7 M was more than 60% or the value of IC50 was more than 200 nM.)
16,CN(C)c1nc(N[C@H]2CC[C@@H](CNC(=O)Nc3ccccc3OC(F)(F)F)CC2)nc2ccccc12 [compound 576],3 (Class 3: The value of percent of control at 10^−7 M was more than 60% or the value of IC50 was more than 200 nM.)
17,CC(=O)c1cccc(NC(=S)NC[C@H]2CC[C@@H](Nc3nc(N(C)C)c4ccccc4n3)CC2)c1 [compound 577],3 (Class 3: The value of percent of control at 10^−7 M was more than 60% or the value of IC50 was more than 200 nM.)
